pIC50: −log10 of the molar value.
Test system: 454973-116-R2-J3-PDC complex spheroid viability
Assay: Anticancer human tumor 454973-116-R2-J3-PDC patient-derived pancreatic carcinoma cell line growth inhibition [POLQ]
Conditions: for pIC50: curve of first compound; for viability, T/C: stronger effect = lower value
Summary of the method: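 PDC + HUVEC + MSC complex spheroids; POLQ inhibitors ± partner drugs; top conc. at/near clinical Cmax, else 10 microM (SN-38 1 microM), half-log dilutions; 37 degrees C, 5% CO2.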

[1] = second compound 0.0316 µM, first compound 0.0316 µM
[2] = second compound 0.0316 µM, first compound 0.1 µM
[3] = second compound 0.0316 µM, first compound 0.316 µM
[4] = second compound 0.0316 µM, first compound 1 µM
[5] = second compound 0.0316 µM, first compound 3.16 µM
[6] = second compound 0.0316 µM, first compound 10 µM
[7] = second compound 0.1 µM, first compound 0.0316 µM
[8] = second compound 0.1 µM, first compound 0.1 µM
[9] = second compound 0.1 µM, first compound 0.316 µM
[10] = second compound 0.1 µM, first compound 1 µM
[11] = second compound 0.1 µM, first compound 3.16 µM
[12] = second compound 0.1 µM, first compound 10 µM
[13] = second compound 0.316 µM, first compound 0.0316 µM
[14] = second compound 0.316 µM, first compound 0.1 µM
[15] = second compound 0.316 µM, first compound 0.316 µM
[16] = second compound 0.316 µM, first compound 1 µM
[17] = second compound 0.316 µM, first compound 3.16 µM
[18] = second compound 0.316 µM, first compound 10 µM
[19] = second compound 1 µM, first compound 0.0316 µM
[20] = second compound 1 µM, first compound 0.1 µM
[21] = second compound 1 µM, first compound 0.316 µM
[22] = second compound 1 µM, first compound 1 µM
[23] = second compound 1 µM, first compound 3.16 µM
[24] = second compound 1 µM, first compound 10 µM
[25] = second compound 3.16 µM, first compound 0.0316 µM
[26] = second compound 3.16 µM, first compound 0.1 µM
[27] = second compound 3.16 µM, first compound 0.316 µM
[28] = second compound 3.16 µM, first compound 1 µM
[29] = second compound 3.16 µM, first compound 3.16 µM
[30] = second compound 3.16 µM, first compound 10 µM
[31] = second compound 10 µM, first compound 0.0316 µM
[32] = second compound 10 µM, first compound 0.1 µM
[33] = second compound 10 µM, first compound 0.316 µM
[34] = second compound 10 µM, first compound 1 µM
[35] = second compound 10 µM, first compound 3.16 µM
[36] = second compound 10 µM, first compound 10 µM
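Further: spheroids exposed to drugs for seven days before measurement.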
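Wherever viability, T/C is given: percent viability relative to DMSO vehicle control wells taken as 100%.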

Structure (SMILES): CC1COCCN1c1cc(C2(O)CC3CCC(C2)O3)c2cnn(-c3ccn[nH]3)c2n1 (stereo not drawn) + COC1C(OC(N)=O)C(O)C(Oc2ccc3c(O)c(NC(=O)c4ccc(O)c(CC=C(C)C)c4)c(=O)oc3c2C)OC1(C)C
- pIC50 (second compound 0.0316 µM): 6.69
- pIC50 (second compound 0.1 µM): 6.63
- pIC50 (second compound 0.316 µM): 6.65
- pIC50 (second compound 1 µM): 6.71
- pIC50 (second compound 3.16 µM): 6.71
- pIC50 (second compound 10 µM): 6.66
- viability, T/C [1]: 104%
- viability, T/C [2]: 74.1%
- viability, T/C [3]: 35.3%
- viability, T/C [4]: 22.1%
- viability, T/C [5]: 25.1%
- viability, T/C [6]: 15.6%
- viability, T/C [7]: 93.2%
- viability, T/C [8]: 76.9%
- viability, T/C [9]: 39.6%
- viability, T/C [10]: 24.4%
- viability, T/C [11]: 22.2%
- viability, T/C [12]: 15.8%
- viability, T/C [13]: 100%
- viability, T/C [14]: 75.6%
- viability, T/C [15]: 40.6%
- viability, T/C [16]: 18.9%
- viability, T/C [17]: 25.8%
- viability, T/C [18]: 18.4%
- viability, T/C [19]: 102%
- viability, T/C [20]: 69.6%
- viability, T/C [21]: 37.8%
- viability, T/C [22]: 18.7%
- viability, T/C [23]: 21.4%
- viability, T/C [24]: 20.1%
- viability, T/C [25]: 104%
- viability, T/C [26]: 73.5%
- viability, T/C [27]: 32.6%
- viability, T/C [28]: 19.3%
- viability, T/C [29]: 24.1%
- viability, T/C [30]: 17.6%
- viability, T/C [31]: 94.6%
- viability, T/C [32]: 68.4%
- viability, T/C [33]: 42.3%
- viability, T/C [34]: 21.5%
- viability, T/C [35]: 25.8%
- viability, T/C [36]: 15%

Structure (SMILES): CC(=O)O[C@H]1C(=O)[C@@]2(C)[C@H]([C@H](OC(=O)c3ccccc3)[C@]3(O)C[C@H](OC(=O)[C@H](O)[C@@H](NC(=O)c4ccccc4)c4ccccc4)C(C)=C1C3(C)C)[C@]1(OC(C)=O)CO[C@@H]1C[C@@H]2O + Cc1cccc(N(C)C(=O)C2C(O)CCN2c2nc(C)cc(C(F)(F)F)c2C#N)c1
- pIC50 (second compound 0.0316 µM): > 8.02
- pIC50 (second compound 0.1 µM): > 8.02
- pIC50 (second compound 0.316 µM): > 8.02
- pIC50 (second compound 1 µM): > 8.02
- pIC50 (second compound 3.16 µM): > 8.02
- pIC50 (second compound 10 µM): > 8.02
- viability, T/C (second compound 0.0316 µM, first compound 0.00949 µM): 5.9%
- viability, T/C (second compound 0.0316 µM, first compound 0.03 µM): 5.78%
- viability, T/C (second compound 0.0316 µM, first compound 0.0949 µM): 4.79%
- viability, T/C (second compound 0.0316 µM, first compound 0.3 µM): 5.44%
- viability, T/C (second compound 0.0316 µM, first compound 0.949 µM): 6.64%
- viability, T/C (second compound 0.0316 µM, first compound 3 µM): 4.88%
- viability, T/C (second compound 0.1 µM, first compound 0.00949 µM): 7.63%
- viability, T/C (second compound 0.1 µM, first compound 0.03 µM): 5.67%
- viability, T/C (second compound 0.1 µM, first compound 0.0949 µM): 4.39%
- viability, T/C (second compound 0.1 µM, first compound 0.3 µM): 5.55%
- viability, T/C (second compound 0.1 µM, first compound 0.949 µM): 5.21%
- viability, T/C (second compound 0.1 µM, first compound 3 µM): 5.24%
- viability, T/C (second compound 0.316 µM, first compound 0.00949 µM): 7.72%
- viability, T/C (second compound 0.316 µM, first compound 0.03 µM): 6.78%
- viability, T/C (second compound 0.316 µM, first compound 0.0949 µM): 5.34%
- viability, T/C (second compound 0.316 µM, first compound 0.3 µM): 4.54%
- viability, T/C (second compound 0.316 µM, first compound 0.949 µM): 4.69%
- viability, T/C (second compound 0.316 µM, first compound 3 µM): 5.5%
- viability, T/C (second compound 1 µM, first compound 0.00949 µM): 7.85%
- viability, T/C (second compound 1 µM, first compound 0.03 µM): 5.01%
- viability, T/C (second compound 1 µM, first compound 0.0949 µM): 5.19%
- viability, T/C (second compound 1 µM, first compound 0.3 µM): 5.01%
- viability, T/C (second compound 1 µM, first compound 0.949 µM): 5.7%
- viability, T/C (second compound 1 µM, first compound 3 µM): 4.36%
- viability, T/C (second compound 3.16 µM, first compound 0.00949 µM): 6.74%
- viability, T/C (second compound 3.16 µM, first compound 0.03 µM): 5.6%
- viability, T/C (second compound 3.16 µM, first compound 0.0949 µM): 5.28%
- viability, T/C (second compound 3.16 µM, first compound 0.3 µM): 4.99%
- viability, T/C (second compound 3.16 µM, first compound 0.949 µM): 5.45%
- viability, T/C (second compound 3.16 µM, first compound 3 µM): 4.91%
- viability, T/C (second compound 10 µM, first compound 0.00949 µM): 6.83%
- viability, T/C (second compound 10 µM, first compound 0.03 µM): 5.22%
- viability, T/C (second compound 10 µM, first compound 0.0949 µM): 5.42%
- viability, T/C (second compound 10 µM, first compound 0.3 µM): 5.06%
- viability, T/C (second compound 10 µM, first compound 0.949 µM): 4.84%
- viability, T/C (second compound 10 µM, first compound 3 µM): 5.41%

Structure (SMILES): COc1cc(C2c3cc4c(cc3C(OC3OC5COC(C)OC5C(O)C3O)C3COC(=O)C23)OCO4)cc(OC)c1O (stereo not drawn) + Cc1cccc(N(C)C(=O)C2C(O)CCN2c2nc(C)cc(C(F)(F)F)c2C#N)c1
- pIC50 (second compound 0.0316 µM): 5.82
- pIC50 (second compound 0.1 µM): 5.82
- pIC50 (second compound 0.316 µM): 5.87
- pIC50 (second compound 1 µM): 5.89
- pIC50 (second compound 3.16 µM): 5.97
- pIC50 (second compound 10 µM): 6.05
- viability, T/C [1]: 97.9%
- viability, T/C [2]: 108%
- viability, T/C [3]: 87.6%
- viability, T/C [4]: 66.1%
- viability, T/C [5]: 23.4%
- viability, T/C [6]: 10.1%
- viability, T/C [7]: 102%
- viability, T/C [8]: 99.5%
- viability, T/C [9]: 89.6%
- viability, T/C [10]: 65.8%
- viability, T/C [11]: 24%
- viability, T/C [12]: 11.7%
- viability, T/C [13]: 101%
- viability, T/C [14]: 102%
- viability, T/C [15]: 87.7%
- viability, T/C [16]: 61.5%
- viability, T/C [17]: 21.8%
- viability, T/C [18]: 9.93%
- viability, T/C [19]: 111%
- viability, T/C [20]: 104%
- viability, T/C [21]: 88.3%
- viability, T/C [22]: 60.6%
- viability, T/C [23]: 21.1%
- viability, T/C [24]: 11.1%
- viability, T/C [25]: 106%
- viability, T/C [26]: 92.9%
- viability, T/C [27]: 82.1%
- viability, T/C [28]: 52.5%
- viability, T/C [29]: 23.1%
- viability, T/C [30]: 13.2%
- viability, T/C [31]: 111%
- viability, T/C [32]: 105%
- viability, T/C [33]: 78.5%
- viability, T/C [34]: 47%
- viability, T/C [35]: 21.7%
- viability, T/C [36]: 10.5%

Structure (SMILES): COc1cccc2c1C(=O)c1c(O)c3c(c(O)c1C2=O)CC(O)(C(=O)CO)CC3OC1CC(N)C(O)C(C)O1 (stereo not drawn) + Cc1cccc(N(C)C(=O)C2C(O)CCN2c2nc(C)cc(C(F)(F)F)c2C#N)c1
- pIC50 (second compound 0.0316 µM): 7.22
- pIC50 (second compound 0.1 µM): 7.20
- pIC50 (second compound 0.316 µM): 7.21
- pIC50 (second compound 1 µM): 7.22
- pIC50 (second compound 3.16 µM): 7.31
- pIC50 (second compound 10 µM): 7.26
- viability, T/C [1]: 72.9%
- viability, T/C [2]: 25.9%
- viability, T/C [3]: 22.1%
- viability, T/C [4]: 10.9%
- viability, T/C [5]: 0.31%
- viability, T/C [6]: 0.23%
- viability, T/C [7]: 71.8%
- viability, T/C [8]: 29.3%
- viability, T/C [9]: 26.9%
- viability, T/C [10]: 8.87%
- viability, T/C [11]: 1.7%
- viability, T/C [12]: 0.22%
- viability, T/C [13]: 70.3%
- viability, T/C [14]: 30.2%
- viability, T/C [15]: 24.2%
- viability, T/C [16]: 9.69%
- viability, T/C [17]: 0.35%
- viability, T/C [18]: 0.28%
- viability, T/C [19]: 67.8%
- viability, T/C [20]: 30.9%
- viability, T/C [21]: 26.6%
- viability, T/C [22]: 9.52%
- viability, T/C [23]: 0.41%
- viability, T/C [24]: 0.32%
- viability, T/C [25]: 56.3%
- viability, T/C [26]: 38.4%
- viability, T/C [27]: 25.6%
- viability, T/C [28]: 6.92%
- viability, T/C [29]: 0.38%
- viability, T/C [30]: 0.33%
- viability, T/C [31]: 63.8%
- viability, T/C [32]: 33%
- viability, T/C [33]: 22%
- viability, T/C [34]: 7.02%
- viability, T/C [35]: 0.38%
- viability, T/C [36]: 0.49%
